The supplement of paper PMC5579334

Columns and labels:
HS-PSS [1] = test: drug sensitivity score (DSS, CellTiter-Glo viability, 72 h) (DSS (dimensionless)); higher = more sensitive; extreme values may be limits of the assay
Summary of the method: (§1)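 After seeding 750–1000 cells per well of MPNST cell lines or primary human Schwann cells into 384-well plates preprinted with each compound at five concentrations in 10-fold steps, plates were kept 72 h at 37 °C, 5% CO2. Viability was read as CellTiter-Glo ATP luminescence relative to vehicle and positive-control wells, with duplicates averaged where present. The data were fitted with four-parameter logistic models. Drug sensitivity score and relative IC50, censored at the top concentration, derive from the fits, and percent inhibition refers to the top concentration.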

HS-Sch-2 [2] = test: as above
Summary of the method: as §1

YST-1 [3] = test: as above
Summary of the method: as §1

HS-PSS [4] = test: drug sensitivity score (DSS, CellTox-Green cytotoxicity, 72 h) (DSS (dimensionless)); higher = more cytotoxic; extreme values may be limits of the assay
Summary of the method: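 For 72 h at 37 °C, MPNST cell lines and primary human Schwann cells were exposed in 384-well plates to five 10-fold compound dilutions. CellTox-Green, added before seeding at a final 1:1000 dilution, gave fluorescence from DNA released by disrupted cells. Signals were scaled to vehicle and positive-control wells, cultures failing plate quality control were left out, and four-parameter logistic fits were applied. Relative IC50 and drug sensitivity score were derived from the fits, with IC50 censored at the top concentration.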

HS-PSS [5] = test: % inhibition of CellTiter-Glo viability at highest tested concentration (72 h), relative to DMSO and benzethonium chloride controls; higher = more inhibition
Summary of the method: as §1

HS-Sch-2 [6] = test: as above
Summary of the method: as §1

YST-1 [7] = test: as above
Summary of the method: as §1

Row | SMILES | drug sensitivity score (HS-PSS [1]) | drug sensitivity score (HS-Sch-2 [2]) | drug sensitivity score (YST-1 [3]) | drug sensitivity score (HS-PSS [4]) | % inhibition (HS-PSS [5]) | % inhibition (HS-Sch-2 [6]) | % inhibition (YST-1 [7])
1 | CN(c1ncccc1CNc1nc(Nc2ccc3c(c2)CC(=O)N3)ncc1C(F)(F)F)S(C)(=O)=O (max concentration tested 10000 nM) | 3.86 | 5.18 | 7.85 | 0.03 | 73.3% | 99.2% | 98.6%
2 | CCC(C)n1ncn(-c2ccc(N3CCN(c4ccc(OCC5COC(Cn6cncn6)(c6ccc(Cl)cc6Cl)O5)cc4)CC3)cc2)c1=O (stereo not drawn) [Itraconazole] (max concentration tested 5000 nM) | 4.25 | 0.33 | 1.58 | 0 | 50.9% | 11.3% | 33.2%
3 | c1cn2cc(-c3ccc4cn[nH]c4c3)nc(Nc3ccc(N4CCOCC4)cc3)c2n1 [Entospletinib] (max concentration tested 5000 nM) | 0 | 0.89 | 0.45 | 0.89 | -4.13% | -16% | 12%
4 | NC[C@@](O)(c1ccc(Cl)cc1)c1ccc(-c2cn[nH]c2)cc1 (max concentration tested 10000 nM) | 7.75 | 8.76 | 4.33 | 6.26 | 97.9% | 91.8% | 73.8%
5 | O=C(CCCCCCNC(=O)c1cnc(N(c2ccccc2)c2ccccc2)nc1)NO [Rocilinostat] (max concentration tested 10000 nM) | 3.58 | 6.66 | 9.5 | 0.39 | 58.4% | 81.2% | 89.5%
6 | CNC(=O)c1cccc2cc(Oc3ccnc4cc(OCC5(N)CC5)c(OC)cc34)ccc12 [Lucitanib] (max concentration tested 10000 nM) | 1.71 | 1.19 | 2.13 | 0 | 23.4% | 31.9% | 26.4%
7 | Cc1ncc(-c2ccnc(Nc3ccc(S(C)(=O)=O)cc3)n2)n1C(C)C [AZD-5438] (max concentration tested 10000 nM) | 12.4 | 8.28 | 9.62 | 0.3 | 72% | 100% | 99.2%
8 | COc1cc(N2CCC(N3CCN(C)CC3)CC2)ccc1Nc1ncnc(Nc2ccccc2S(=O)(=O)C(C)C)n1 [ASP3026] (max concentration tested 10000 nM) | 0 | 0 | 0 | 0 | 2.45% | 4.73% | -4.61%
9 | C=CC(=O)Nc1cc(Nc2nccc(-c3cn(C)c4ccccc34)n2)c(OC)cc1N(C)CCN(C)C [Osimertinib] (max concentration tested 2500 nM) | 5.5 | 4.21 | 6.9 | 0.95 | 66.3% | 73.2% | 63.7%
